Laboratory results: PMC9025851, “Polyphenolic Compounds from Lespedeza bicolor Protect Neuronal Cells from Oxidative Stress” (Antioxidants, 2022)
Read-outs that look alike come from different tables or passages of the source. Blank lines part the entries; values can stand above or below the compound they belong to.

Assays:
[1] = system: hepatocellular carcinoma HEPG-2; set-up: method as in PMID 32087226; conditions: cited from earlier work
[2] = set-up: method as in PMID 31004693; conditions: mean ± SEM, n = 3; previously published; cited from earlier work
[3] = system: PQ-treated Neuro-2a cells; test: PQ-induced neurotoxicity, cell viability (MTT); format: cell-based, murine; conditions: PQ 1 mM; for Effect on percentage of living cells after treatment with PQ: compounds 0.01–10 μM, 1 h pre-treatment, MTT after 24 h
Procedure: (§1) After 24 h of adhesion, Neuro-2a cells (1 × 10^4 cells/well) were treated with polyphenolic compounds at concentrations of 0.01–10 μM for 1 h. Subsequently, 1 mM of PQ, 10 μM rotenone or 80 μM of 6-OHDA (Sigma-Aldrich, St. Louis, MO, USA) were added. We used MTT assay to determine the percentage of living cells (cell viability) after 24 h of incubation. Cells incubated without inductors or with inductors were used as positive and negative control, respectively. The results are presented as percentages of the positive control value.

[4] = system: 6-OHDA-treated Neuro-2a cells; test: 6-OHDA-induced neurotoxicity, cell viability (MTT); format: cell-based, murine; conditions: 6-OHDA 80 µM, p < 0.05
Procedure: as §1

Cytotoxicity, MTT assay = format: cell-based, murine; conditions: mouse, Neuro-2a neuroblastoma cells, read-out: Cytotoxic activity EC50
Procedure: The murine neuroblastoma cell line Neuro-2a (CCL-131) was purchased from American Type Culture Collection (ATCC®) (Manassas, VA, USA). Cells were cultured in Dulbecco’s Modified Eagle Medium (Biolot, St. Petersburg, Russia). The medium contained 10% fetal bovine serum (Biolot, St. Petersburg, Russia) and 1% penicillin/streptomycin (Biolot, St. Petersburg, Russia). Cells were incubated at 37 °C in a humidified atmosphere containing 5% (v/v) CO2.
Stock solutions of polyphenolic compounds were prepared in DMSO at a concentration of 10 mM. […]
We incubated Neuro-2a cells (1 × 10^4 cells/well) at 37 °C in a CO2 incubator for 24 h until they formed an adherent monolayer. Then, 20 μL of the tested solution was loaded onto the cells and incubated for 24 h. After incubation, the medium containing the polyphenolic test compounds was replaced by 100 μL of fresh medium. Then, we added 10 μL of MTT (3-(4,5-dimethylthiazol-2-yl)-2,5-diphenyltetrazolium bromide) (Sigma-Aldrich, St. Louis, MO, USA) stock solution (5 mg/mL) to each well and incubated the microplate for 4 h. Then, 100 μL of SDS-HCl solution (1 g SDS/10 mL dH2O/17 μL 6 M HCl) was added to each well, followed by incubation for 18 h. We measured the absorbance of the converted dye formazan on a Multiskan FC microplate photometer (Thermo Scientific, Waltham, MA, USA) at a wavelength of 570 nm. We performed all experiments in triplicate and expressed the cytotoxic activity as percent of living cells.

[5] = system: human embryonic kidney cells HEK-293; set-up: method as in PMID 32087226; conditions: HEK-293 normal cell line; cited from earlier work
[6] = system: human triple-negative breast cancer HTB-19; set-up: method as in PMID 32087226; conditions: cited from earlier work
[7] = system: 6-OHDA-treated Neuro-2a cells; test: ROS level in 6-OHDA-treated cells (H2DCF-DA); format: cell-based, murine; conditions: 6-OHDA 80 µM, 1 h; H2DCF-DA
Procedure: (§2) After 24 h of adhesion, Neuro-2a cells (1 × 10^4 cells/well) were incubated with compounds (0.01–10 µM) for 1 h. Then, we added rotenone (10 μM), 6-OHDA (80 μM), or PQ (1 mM) to each well and incubated cells for 1 h, 1 h, or 3 h, respectively. To evaluate the level of intracellular ROS, we added 20 µL of 2,7-dichlorodihydrofluorescein diacetate solution ([…], H2DCF-DA, Molecular Probes, Eugene, OR, USA) to each well, so that the final concentration was 10 µM, and incubated the microplate at 37 °C for an additional 30 min. Quercetin was used as a reference compound.

[8] = system: retina pigmented epithelium cells RPE-1; set-up: method as in PMID 32087226; conditions: RPE-1 normal cell line; cited from earlier work
[9] = system: esophageal squamous cell carcinoma Kyse-30; set-up: method as in PMID 32087226; conditions: cited from earlier work
[10] = set-up: method as in PMID 31004693; conditions: 30 min; mean ± SEM, n = 3; previously published; read-out: DPPH-Scavenging Effect SC50; cited from earlier work
TNF-α, IL-1, and IL-6 = system: TNF-α, IL-1, and IL-6; set-up: method as in PMID 21708076; conditions: cited from earlier work
[11] = system: cerebral global-ischemia model; conditions: cited from earlier work
rats = system: rats; set-up: method as in PMID 31693927, doi:10.1016/j.jff.2017.05.002; conditions: cited from earlier work
[12] = system: LPS- and Aβ-induced neurotoxicity; set-up: method as in PMID 21708076; conditions: cited from earlier work
5-lipoxygenase = system: 5-lipoxygenase; set-up: method as in PMID 28506902; conditions: cited from earlier work
MAO-B = system: MAO-B; set-up: method as in PMID 27575476, PMID 32087226; conditions: cited from earlier work
α-synuclein = system: α-synuclein; set-up: method as in PMID 32585871; conditions: cited from earlier work
6-OHDA-exposed worms = system: 6-OHDA-exposed worms; set-up: method as in PMID 32585871; conditions: cited from earlier work
MAO-A = system: MAO-A; set-up: method as in PMID 27575476, PMID 32087226; conditions: cited from earlier work
RAW 264.7 macrophages = system: RAW 264.7 macrophages; set-up: method as in PMID 25592708; conditions: cited from earlier work
[13] = system: PQ-treated Neuro-2a cells; test: ROS level in PQ-treated cells (H2DCF-DA); format: cell-based, murine; conditions: PQ 1 mM, 3 h
Procedure: as §2

[14] = system: rotenone-treated Neuro-2a cells; test: ROS level in rotenone-treated cells (H2DCF-DA); format: cell-based, murine; conditions: rotenone 10 µM, 1 h
Procedure: as §2

[15] = system: rotenone-treated Neuro-2a cells; test: Rotenone-induced neurotoxicity, cell viability (MTT); format: cell-based, murine; conditions: for Increase in percentage of living cells after treatment with rotenone compared to rotenone-treated cells: rotenone 10 µM, MTT, p < 0.05
Procedure: as §1

[16] = DPPH radical-scavenging effect; conditions: 30 min; DPPH• 10^−4 M in MeOH; mean ± SEM, n = 3; read-out: DPPH-Scavenging Effect SC50
Procedure: The 2,2-diphenyl-1-picrylhydrazyl (DPPH^•) radical-scavenging effect of polyphenolic compounds 7–11 was determined as described in [24]. Polyphenolic compounds 7, 8, 9, 10, and 11 were added to DPPH^• solution in MeOH (10^−4 M) at concentrations from 6 to 34 µM. The reacting mixture was kept in the dark for 30 min at room temperature. Then, we measured the absorbance at 517 nm using a Shimadzu UV 1240 spectrophotometer (Shimadzu, Kyoto, Japan). Equation (1) was used to calculate the DPPH^• radical-scavenging effect (%):(1) DPPH^• scavenging effect,%=A0−Ax/A0 where A0 is the absorbance of DPPH^• solution of a blank sample (without polyphenolic compounds); AX is the absorbance of DPPH^• solution in the presence of different concentrations of polyphenolic compounds.
Quercetin was used as a reference compound. All experiments were performed in triplicate. We calculated the half-maximal scavenging concentration (SC50) for polyphenolic compounds by plotting the DPPH^• scavenging effect (%) against the concentrations of polyphenolic compounds. SC50 values are given as the mean value ± SEM.

[17] = Ferric reducing antioxidant power (FRAP) assay; conditions: 4 min, absorbance 595 nm; mean ± SEM, n = 3
Procedure: We performed the FRAP assay as described in [29]. We prepared the FRAP reagent by mixing 2.5 mL of TPTZ (2,4,6-tris(2-pyridyl)-s-triazine) solution (10 mM) in 40 mM HCl and 25 mL of FeCl3 solution (20 mM) in acetate buffer solution (300 mM, pH 3.6). Polyphenolics 7–11 were added to 3 mL of FRAP reagent at concentrations from 6 to 34 µM. The mixture was kept in the dark at room temperature for 4 min. Then, we measured the absorbance at 595 nm using a Shimadzu UV 1240 spectrophotometer. Equation (2) was used to calculate the FRAP values for polyphenolic compounds 7–11:(2) FRAP=CFe/Cx where CFe is the concentration of Fe^2+ (µM) formed in the reaction; CX is the concentration of polyphenolic compounds in the reacting mixture.
The concentration of Fe^2+ (µM) formed in the reaction was determined using the calibration curve obtained for different concentrations of FeSO4·7H2O.

Compound: CC(C)=CCC/C(C)=C/Cc1c(O)c(O)cc2c3c(oc12)-c1ccc(O)cc1OC3 [Compound 4, lespedezol A2]
- Cytotoxicity [1]: rather cytotoxic
- FRAP [2]: 2.78 ± 0.18 mol (Fe^2+)/mol (polyphenolic compound X)
- Effect on percentage of living cells after treatment with PQ [3]: did not exhibit any effect
- Increase in percentage of living cells after 6-OHDA treatment versus 6-OHDA-treated cells [4]: 7.0%
- EC50 at 24 h (Cytotoxicity, MTT assay): 76 µM
- Cytotoxicity [5]: rather cytotoxic
- Cytotoxicity [6]: rather cytotoxic
- Effect on ROS levels in 6-OHDA-treated cells [7]: significantly decreased
- Cytotoxicity [8]: rather cytotoxic
- Cytotoxicity [9]: rather cytotoxic
- EC50 [10]: 18 ± 0.2 µM

Compound: O=c1oc2cc(O)ccc2c2oc3cc(O)ccc3c12 [Coumestrol]
- Production of inflammatory cytokines TNF-α, IL-1, and IL-6 (TNF-α, IL-1, and IL-6): inhibited
- Neuroprotection in a cerebral global-ischemia model [11]: effective neuroprotection
- Mitochondrial activity (rats): modulated
- Oxidative stress (rats): decreased
- Neurotoxicity induced by LPS and amyloid-beta peptide (Aβ) [12]: attenuated

Compound: Oc1ccc2c(c1)OC[C@H]1c3cc4c(cc3O[C@@H]21)OCO4 [maackiain]
- Inhibition of 5-lipoxygenase (5-lipoxygenase): inhibited
- Inhibition of MAO-B (MAO-B): selectively inhibited
- Accumulation of α-synuclein (α-synuclein): diminish
- Dopaminergic neuron damage (6-OHDA-exposed worms): significantly reduce
- Inhibition of MAO-A (MAO-A): did not effectively inhibit
- LPS-induced nitric oxide production (RAW 264.7 macrophages): inhibitory effects

Compound: CC(C)=CCC/C(C)=C/Cc1c(O)c(O)cc2c1O[C@H]1c3cc(CC=C(C)C)c(O)cc3OC[C@@H]21 [Compound 6, (6aR,11aR)-2-isoprenyl-6a,11a-dihydrolespedezol A2]
- FRAP [2]: 1.43 ± 0.06 mol (Fe^2+)/mol (polyphenolic compound X)
- Effect on percentage of living cells after treatment with PQ [3]: significantly increased
- Concentration range in which the neuroprotective effect was detected ([3]; MTT): 0.01 to 1 µM
- Increase in percentage of living cells after treatment with PQ ([3]; compound 1 μM, MTT): 17%
- EC50 at 24 h (Cytotoxicity, MTT assay): 40.6 µM
- Effect on ROS level in PQ-treated cells [13]: slightly decreased
- EC50 [10]: 21.8 ± 2 µM

- EC50 [16]: 13.5 ± 1.2 µM
Compound: CC(C)=CCC[C@@]1(C)C=Cc2c(c(O)cc3c4c(oc23)-c2ccc(O)cc2OC4)O1 [Compound 9, lespedezol A3]
- Increase in percentage of living cells after 6-OHDA treatment versus 6-OHDA-treated cells [4]: 31.4%
- EC50 at 24 h (Cytotoxicity, MTT assay): 75 µM
- Effect on ROS levels in rotenone-treated cells [14]: did not significantly decrease
- Increase in percentage of living cells after treatment with rotenone compared to rotenone-treated cells [15]: 10.4%
- Effect on ROS levels in 6-OHDA-treated cells [7]: significantly decreased

- EC50 [16]: 22.7 ± 3.5 µM
Compound: CC(C)=CCC[C@@]1(C)C=Cc2c(c(O)cc3c2oc2c4ccc(O)cc4oc(=O)c32)O1 [Compound 10, lespebicoumestan A]
- Increase in percentage of living cells after 6-OHDA treatment versus 6-OHDA-treated cells [4]: 10.9%
- FRAP [17]: 1.75 ± 0.20 mol (Fe^2+)/mol (polyphenolic compound X)
- EC50 at 24 h (Cytotoxicity, MTT assay): 44 µM
- Effect on ROS levels in rotenone-treated cells [14]: did not significantly decrease
- Increase in percentage of living cells after treatment with rotenone compared to rotenone-treated cells [15]: 13.2%
- Effect on ROS levels in 6-OHDA-treated cells [7]: significantly decreased

Compound: C=C(C)[C@H]1Cc2c(ccc3c2O[C@@H]2COc4cc(OC)c(OC)cc4[C@@H]2C3=O)O1 [rotenone, reference compound]
- Percentage of living Neuro-2a cells compared to the control ([15]; rotenone 10 µM alone): 68%
